In article PMC7486443, “Generation of Phenothiazine with Potent Anti-TLK1 Activity for Prostate Cancer Therapy” (iScience, 2020):

What was measured:
[1] = molecular target: TTK (Homo sapiens, UniProt P33981); assay: Kinomescan SCANMAX panel at […]; type: binding
[2] = molecular target: CLK2 (Homo sapiens, UniProt P49760); assay: biochemical; parameters: DiscoverX KINOMEscan scanMAX competition binding panel, single concentration, percent of control; remaining binding: dose or concentration left out as unconfirmed; conditions: KINOMEscan binding, percent of control; read-out: Table S4_SCANMAX REPORT - related to Fig. 1 / Percent Control
Source text: (§1) Certain PTH are potent inhibitors of TLK1 ([Ronald et al., 2013]), and by inference TLK2, as these proteins must homo- and hetero-dimerize for full activation ([Mortuza et al., 2018]), in addition to being highly similar in sequence and structure, and thus similarly targetable. […] Two noteworthy observations are that PTHs are structurally different from many known ATP competitive inhibitors, and that J54 was carefully designed based on considerations reported previously for the THD—the Kinomescan has confirmed that J54 is specific to TLKs. We should point out that although PTH were the first reported inhibitors of TLKs ([Ronald et al., 2013]), other inhibitors particularly of TLK2 have since been reported ([Kim et al., 2016]), some based on structure docking ([Mortuza et al., 2018]), although neither their potency and effects in vivo nor their potential off-target effects have not been reported as they were selected from libraries of kinase inhibitors. Supplementary file mmc2.xlsx: Table S4. SCANMAX Table, Related to Figure 1 Kinomescan of J54 inhibitory activity on human kinases.

[3] = molecular target: CSNK1D (Homo sapiens, UniProt P48730); assay: biochemical; parameters: DiscoverX KINOMEscan scanMAX competition binding panel, single concentration, percent of control; remaining binding: dose or concentration left out as unconfirmed; conditions: KINOMEscan binding, percent of control; read-out: Table S4_SCANMAX REPORT - related to Fig. 1 / Percent Control
Source text: as §1

[4] = molecular target: EGFR(L747-E749del, A750P) (Homo sapiens, UniProt P00533, A750P/DEL747-749); assay: biochemical; parameters: DiscoverX KINOMEscan scanMAX competition binding panel, single concentration, percent of control; remaining binding: dose or concentration left out as unconfirmed; conditions: KINOMEscan binding, percent of control; read-out: Table S4_SCANMAX REPORT - related to Fig. 1 / Percent Control
Source text: as §1

[5] = molecular target: EPHA8 (Homo sapiens, UniProt P29322); assay: biochemical; parameters: DiscoverX KINOMEscan scanMAX competition binding panel, single concentration, percent of control; remaining binding: dose or concentration left out as unconfirmed; conditions: KINOMEscan binding, percent of control; read-out: Table S4_SCANMAX REPORT - related to Fig. 1 / Percent Control
Source text: as §1

[6] = molecular target: T1, ERK2 (Homo sapiens, UniProt P28482); assay: biochemical; parameters: DiscoverX KINOMEscan scanMAX competition binding panel, single concentration, percent of control; remaining binding: dose or concentration left out as unconfirmed; conditions: KINOMEscan binding, percent of control; read-out: Table S4_SCANMAX REPORT - related to Fig. 1 / Percent Control
T1 construct: gene MAPK1
Source text: as §1

[7] = molecular target: LYN (Homo sapiens, UniProt P07948); assay: biochemical; parameters: DiscoverX KINOMEscan scanMAX competition binding panel, single concentration, percent of control; remaining binding: dose or concentration left out as unconfirmed; conditions: KINOMEscan binding, percent of control; read-out: Table S4_SCANMAX REPORT - related to Fig. 1 / Percent Control
Source text: as §1

[8] = molecular target: MAP3K15 (Homo sapiens, UniProt Q6ZN16); assay: biochemical; parameters: DiscoverX KINOMEscan scanMAX competition binding panel, single concentration, percent of control; remaining binding: dose or concentration left out as unconfirmed; conditions: KINOMEscan binding, percent of control; read-out: Table S4_SCANMAX REPORT - related to Fig. 1 / Percent Control
Source text: as §1

[9] = molecular target: MARK1 (Homo sapiens, UniProt Q9P0L2); assay: biochemical; parameters: DiscoverX KINOMEscan scanMAX competition binding panel, single concentration, percent of control; remaining binding: dose or concentration left out as unconfirmed; conditions: KINOMEscan binding, percent of control; read-out: Table S4_SCANMAX REPORT - related to Fig. 1 / Percent Control
Source text: as §1

[10] = molecular target: MTOR (Homo sapiens, UniProt P42345); assay: biochemical; parameters: DiscoverX KINOMEscan scanMAX competition binding panel, single concentration, percent of control; remaining binding: dose or concentration left out as unconfirmed; conditions: KINOMEscan binding, percent of control; read-out: Table S4_SCANMAX REPORT - related to Fig. 1 / Percent Control
Source text: as §1

[11] = molecular target: NEK11 (Homo sapiens, UniProt Q8NG66); assay: biochemical; parameters: DiscoverX KINOMEscan scanMAX competition binding panel, single concentration, percent of control; remaining binding: dose or concentration left out as unconfirmed; conditions: KINOMEscan binding, percent of control; read-out: Table S4_SCANMAX REPORT - related to Fig. 1 / Percent Control
Source text: as §1

[12] = molecular target: T2, OSR1 (Homo sapiens, UniProt O95747); assay: biochemical; parameters: DiscoverX KINOMEscan scanMAX competition binding panel, single concentration, percent of control; remaining binding: dose or concentration left out as unconfirmed; conditions: KINOMEscan binding, percent of control; read-out: Table S4_SCANMAX REPORT - related to Fig. 1 / Percent Control
T2 construct: gene OXSR1
Source text: as §1

[13] = molecular target: PIK3CA(I800L) (Homo sapiens, UniProt P42336, I800L); assay: biochemical; parameters: DiscoverX KINOMEscan scanMAX competition binding panel, single concentration, percent of control; remaining binding: dose or concentration left out as unconfirmed; conditions: KINOMEscan binding, percent of control; read-out: Table S4_SCANMAX REPORT - related to Fig. 1 / Percent Control
Source text: as §1

[14] = molecular target: PIK3CD (Homo sapiens, UniProt O00329); assay: biochemical; parameters: DiscoverX KINOMEscan scanMAX competition binding panel, single concentration, percent of control; remaining binding: dose or concentration left out as unconfirmed; conditions: KINOMEscan binding, percent of control; read-out: Table S4_SCANMAX REPORT - related to Fig. 1 / Percent Control
Source text: as §1

[15] = molecular target: PIM1 (Homo sapiens, UniProt P11309); assay: biochemical; parameters: DiscoverX KINOMEscan scanMAX competition binding panel, single concentration, percent of control; remaining binding: dose or concentration left out as unconfirmed; conditions: KINOMEscan binding, percent of control; read-out: Table S4_SCANMAX REPORT - related to Fig. 1 / Percent Control
Source text: as §1

[16] = molecular target: SGK3 (Homo sapiens, UniProt Q96BR1); assay: biochemical; parameters: DiscoverX KINOMEscan scanMAX competition binding panel, single concentration, percent of control; remaining binding: dose or concentration left out as unconfirmed; conditions: KINOMEscan binding, percent of control; read-out: Table S4_SCANMAX REPORT - related to Fig. 1 / Percent Control
Source text: as §1

[17] = molecular target: SRPK2 (Homo sapiens, UniProt P78362); assay: biochemical; parameters: DiscoverX KINOMEscan scanMAX competition binding panel, single concentration, percent of control; remaining binding: dose or concentration left out as unconfirmed; conditions: KINOMEscan binding, percent of control; read-out: Table S4_SCANMAX REPORT - related to Fig. 1 / Percent Control
Source text: as §1

[18] = molecular target: WNK2 (Homo sapiens, UniProt Q9Y3S1); assay: biochemical; parameters: DiscoverX KINOMEscan scanMAX competition binding panel, single concentration, percent of control; remaining binding: dose or concentration left out as unconfirmed; conditions: KINOMEscan binding, percent of control; read-out: Table S4_SCANMAX REPORT - related to Fig. 1 / Percent Control
Source text: as §1

[19] = molecular target: WNK4 (Homo sapiens, UniProt Q96J92); assay: biochemical; parameters: DiscoverX KINOMEscan scanMAX competition binding panel, single concentration, percent of control; remaining binding: dose or concentration left out as unconfirmed; conditions: KINOMEscan binding, percent of control; read-out: Table S4_SCANMAX REPORT - related to Fig. 1 / Percent Control
Source text: as §1

PIK3CD, sequence (O00329 whole entry): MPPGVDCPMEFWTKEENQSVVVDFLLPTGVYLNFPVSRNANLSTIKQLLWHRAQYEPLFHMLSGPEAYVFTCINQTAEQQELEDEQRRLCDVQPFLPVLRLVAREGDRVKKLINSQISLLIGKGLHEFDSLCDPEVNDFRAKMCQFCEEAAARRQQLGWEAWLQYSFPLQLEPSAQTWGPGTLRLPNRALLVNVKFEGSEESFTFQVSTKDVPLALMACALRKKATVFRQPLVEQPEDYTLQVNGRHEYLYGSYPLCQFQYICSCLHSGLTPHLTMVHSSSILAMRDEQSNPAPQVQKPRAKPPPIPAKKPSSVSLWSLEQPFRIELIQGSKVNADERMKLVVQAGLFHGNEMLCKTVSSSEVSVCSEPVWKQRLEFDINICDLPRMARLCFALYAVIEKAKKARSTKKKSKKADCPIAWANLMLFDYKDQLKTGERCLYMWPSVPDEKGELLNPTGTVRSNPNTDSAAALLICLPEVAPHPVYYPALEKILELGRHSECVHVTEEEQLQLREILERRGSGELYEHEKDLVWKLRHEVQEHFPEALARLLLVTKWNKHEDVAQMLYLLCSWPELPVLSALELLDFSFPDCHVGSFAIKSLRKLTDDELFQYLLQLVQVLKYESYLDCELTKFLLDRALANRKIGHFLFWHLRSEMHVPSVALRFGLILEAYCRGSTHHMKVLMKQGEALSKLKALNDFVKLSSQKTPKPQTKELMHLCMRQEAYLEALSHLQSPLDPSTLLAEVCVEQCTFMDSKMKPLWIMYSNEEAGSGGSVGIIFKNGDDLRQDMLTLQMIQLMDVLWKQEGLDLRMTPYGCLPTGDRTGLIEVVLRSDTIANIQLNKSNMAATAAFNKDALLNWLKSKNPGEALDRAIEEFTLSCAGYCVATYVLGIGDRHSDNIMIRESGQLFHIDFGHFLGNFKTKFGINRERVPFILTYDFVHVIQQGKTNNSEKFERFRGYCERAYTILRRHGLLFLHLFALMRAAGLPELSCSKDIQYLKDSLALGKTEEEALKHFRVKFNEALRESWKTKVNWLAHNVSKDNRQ
CSNK1D, sequence (P48730 whole entry): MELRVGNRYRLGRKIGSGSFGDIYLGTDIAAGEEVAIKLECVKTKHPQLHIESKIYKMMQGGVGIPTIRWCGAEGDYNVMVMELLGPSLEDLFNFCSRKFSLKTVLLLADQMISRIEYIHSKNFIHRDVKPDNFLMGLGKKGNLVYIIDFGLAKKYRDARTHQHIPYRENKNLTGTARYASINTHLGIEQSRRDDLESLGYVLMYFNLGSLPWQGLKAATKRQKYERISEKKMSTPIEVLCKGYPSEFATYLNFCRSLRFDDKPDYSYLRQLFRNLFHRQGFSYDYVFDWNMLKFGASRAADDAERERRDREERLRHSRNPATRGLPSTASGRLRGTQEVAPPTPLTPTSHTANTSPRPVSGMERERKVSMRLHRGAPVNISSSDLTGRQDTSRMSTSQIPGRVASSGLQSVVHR
MARK1, sequence (Q9P0L2 whole entry): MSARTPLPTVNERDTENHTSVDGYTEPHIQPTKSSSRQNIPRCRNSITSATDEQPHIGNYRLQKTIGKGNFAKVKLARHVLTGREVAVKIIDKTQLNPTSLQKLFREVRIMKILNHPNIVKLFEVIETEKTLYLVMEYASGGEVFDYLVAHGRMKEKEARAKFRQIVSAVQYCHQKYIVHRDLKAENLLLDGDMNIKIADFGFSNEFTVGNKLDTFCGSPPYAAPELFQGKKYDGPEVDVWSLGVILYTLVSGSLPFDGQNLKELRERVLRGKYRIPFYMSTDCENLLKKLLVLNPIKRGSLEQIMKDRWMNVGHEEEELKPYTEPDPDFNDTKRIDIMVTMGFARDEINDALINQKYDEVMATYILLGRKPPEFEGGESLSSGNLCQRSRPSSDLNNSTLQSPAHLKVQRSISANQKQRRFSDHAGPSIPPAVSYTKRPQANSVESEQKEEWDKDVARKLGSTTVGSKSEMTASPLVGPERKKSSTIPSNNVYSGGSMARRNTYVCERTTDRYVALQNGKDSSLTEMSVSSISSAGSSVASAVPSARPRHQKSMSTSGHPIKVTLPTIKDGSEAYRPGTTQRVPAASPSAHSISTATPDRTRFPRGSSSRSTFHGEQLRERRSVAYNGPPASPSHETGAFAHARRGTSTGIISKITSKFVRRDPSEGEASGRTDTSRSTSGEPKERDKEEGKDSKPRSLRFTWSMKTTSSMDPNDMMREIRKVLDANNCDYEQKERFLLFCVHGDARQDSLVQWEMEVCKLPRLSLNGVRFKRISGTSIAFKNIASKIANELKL
PIM1, sequence (P11309 whole entry): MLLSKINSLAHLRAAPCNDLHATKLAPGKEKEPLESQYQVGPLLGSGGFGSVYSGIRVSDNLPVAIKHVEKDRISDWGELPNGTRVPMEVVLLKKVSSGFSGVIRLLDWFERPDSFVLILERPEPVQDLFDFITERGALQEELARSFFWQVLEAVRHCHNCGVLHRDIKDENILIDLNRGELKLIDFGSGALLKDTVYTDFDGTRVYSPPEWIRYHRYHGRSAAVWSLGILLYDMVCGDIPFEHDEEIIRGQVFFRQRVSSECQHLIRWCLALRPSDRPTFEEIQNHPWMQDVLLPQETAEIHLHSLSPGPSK
LYN, sequence (P07948 whole entry): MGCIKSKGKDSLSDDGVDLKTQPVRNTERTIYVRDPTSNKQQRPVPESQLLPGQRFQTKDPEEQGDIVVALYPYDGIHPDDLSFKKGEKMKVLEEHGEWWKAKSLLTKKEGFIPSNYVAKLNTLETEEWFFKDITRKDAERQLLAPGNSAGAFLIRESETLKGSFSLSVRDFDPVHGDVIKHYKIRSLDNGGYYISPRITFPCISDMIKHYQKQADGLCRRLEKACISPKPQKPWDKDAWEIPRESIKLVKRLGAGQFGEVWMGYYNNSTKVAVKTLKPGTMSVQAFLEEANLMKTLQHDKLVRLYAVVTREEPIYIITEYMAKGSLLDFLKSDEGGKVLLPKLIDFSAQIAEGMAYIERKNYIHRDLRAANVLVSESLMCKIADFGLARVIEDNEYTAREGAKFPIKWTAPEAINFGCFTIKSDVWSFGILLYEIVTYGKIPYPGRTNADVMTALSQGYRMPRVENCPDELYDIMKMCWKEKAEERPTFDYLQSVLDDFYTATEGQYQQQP
T2 sequence (O95747 whole entry): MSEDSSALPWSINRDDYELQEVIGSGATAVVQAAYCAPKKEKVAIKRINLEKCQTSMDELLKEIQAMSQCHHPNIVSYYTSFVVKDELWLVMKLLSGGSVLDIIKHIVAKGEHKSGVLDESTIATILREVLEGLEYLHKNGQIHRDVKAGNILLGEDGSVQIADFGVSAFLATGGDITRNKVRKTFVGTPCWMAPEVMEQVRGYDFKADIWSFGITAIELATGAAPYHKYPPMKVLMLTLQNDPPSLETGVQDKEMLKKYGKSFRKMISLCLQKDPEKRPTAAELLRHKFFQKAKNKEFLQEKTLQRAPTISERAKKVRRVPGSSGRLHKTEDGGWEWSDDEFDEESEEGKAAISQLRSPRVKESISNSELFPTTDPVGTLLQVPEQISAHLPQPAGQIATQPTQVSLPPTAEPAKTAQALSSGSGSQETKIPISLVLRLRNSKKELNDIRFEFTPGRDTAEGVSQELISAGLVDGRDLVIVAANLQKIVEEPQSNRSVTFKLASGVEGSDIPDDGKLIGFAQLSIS
WNK4, sequence (Q96J92 whole entry): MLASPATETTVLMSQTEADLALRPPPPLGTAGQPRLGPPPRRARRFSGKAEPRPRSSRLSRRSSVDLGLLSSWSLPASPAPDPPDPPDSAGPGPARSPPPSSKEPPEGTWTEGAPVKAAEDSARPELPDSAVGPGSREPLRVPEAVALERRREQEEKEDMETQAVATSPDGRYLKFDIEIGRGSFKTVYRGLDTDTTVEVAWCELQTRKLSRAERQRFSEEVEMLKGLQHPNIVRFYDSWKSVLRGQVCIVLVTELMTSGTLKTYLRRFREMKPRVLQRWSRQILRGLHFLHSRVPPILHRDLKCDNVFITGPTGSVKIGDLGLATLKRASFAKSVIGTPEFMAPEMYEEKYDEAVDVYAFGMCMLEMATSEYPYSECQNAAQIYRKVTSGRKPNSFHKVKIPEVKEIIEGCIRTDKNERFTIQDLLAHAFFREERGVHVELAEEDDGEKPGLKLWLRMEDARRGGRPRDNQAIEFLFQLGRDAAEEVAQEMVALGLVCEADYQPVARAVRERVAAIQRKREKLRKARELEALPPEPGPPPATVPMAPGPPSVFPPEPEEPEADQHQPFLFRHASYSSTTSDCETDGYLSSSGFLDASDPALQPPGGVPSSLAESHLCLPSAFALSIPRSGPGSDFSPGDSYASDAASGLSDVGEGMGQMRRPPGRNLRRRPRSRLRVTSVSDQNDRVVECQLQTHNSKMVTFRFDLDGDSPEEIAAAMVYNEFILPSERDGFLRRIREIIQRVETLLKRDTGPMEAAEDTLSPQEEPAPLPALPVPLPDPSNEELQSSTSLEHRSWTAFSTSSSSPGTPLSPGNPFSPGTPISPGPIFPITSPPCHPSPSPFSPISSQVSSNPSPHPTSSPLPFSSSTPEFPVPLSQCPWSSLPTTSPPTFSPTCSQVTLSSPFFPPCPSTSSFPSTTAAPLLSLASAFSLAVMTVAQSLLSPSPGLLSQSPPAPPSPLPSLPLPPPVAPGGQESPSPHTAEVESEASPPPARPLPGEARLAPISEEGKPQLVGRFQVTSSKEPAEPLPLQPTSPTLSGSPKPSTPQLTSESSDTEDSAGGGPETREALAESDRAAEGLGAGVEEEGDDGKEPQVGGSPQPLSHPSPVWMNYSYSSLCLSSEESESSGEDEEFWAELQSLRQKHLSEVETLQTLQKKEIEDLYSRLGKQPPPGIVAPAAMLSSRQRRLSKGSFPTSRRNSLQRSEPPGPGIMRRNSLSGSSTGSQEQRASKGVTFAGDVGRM

## c1ccc2c(c1)Sc1ccccc1N2CCN1CCOCC1 [J54]
[1]
  Kinomescan SCANMAX panel at 15 μM: little inhibition of all other kinases with the exception of TTK
[2]
  remaining binding: 79%
[3]
  remaining binding: 95%
[4]
  remaining binding: 90%
[5]
  remaining binding: 100%
[6]
  remaining binding: 97%
[7]
  remaining binding: 98%
[8]
  remaining binding: 100%
[9]
  remaining binding: 94%
[10]
  remaining binding at 15 µM: 100%
[11]
  remaining binding: 100%
[12]
  remaining binding: 100%
[13]
  remaining binding: 99%
[14]
  remaining binding: 100%
[15]
  remaining binding: 81%
[16]
  remaining binding: 94%
[17]
  remaining binding: 100%
[18]
  remaining binding: 100%
[19]
  remaining binding: 91%
